According to patent publication US20050070510A1, “Substituted tetracycline compounds as synergistic antifungal agents” (Paratek Pharmaceuticals, Inc., priority 2001, published 2005):

Test system: Candida albicans (ATCC#90028)
Test: Synergetic antifungal activity with amphotericin B, broth microdilution (NCCLS)
Format: cell-based
Settings: amphotericin B alone

`C[C@@H]1[C@H](O)[C@@H](C)/C=C/C=C/C=C/C=C/C=C/C=C/C=C/[C@H](O[C@@H]2O[C@H](C)[C@@H](O)[C@H](N)[C@@H]2O)C[C@@H]2O[C@](O)(C[C@@H](O)C[C@@H](O)[C@H](O)CC[C@@H](O)C[C@@H](O)CC(=O)O[C@H]1C)C[C@H](O)[C@H]2C(=O)O` [Amphotericin B] was tested, and the “amphotericin B MIC” value was 0.5 µg/mL.
